Key:
Format in all cases: cell-based, human
CD4+ T cells [1] = experiment: IFN-γ ELISPOT of CD4+ T cells presensitized with overlapping NY-ESO-1 18 mer peptides
Method: Peripheral blood mono-nuclear cells (“PBMCs”) were separated from heparinized blood via Ficoll density gradient separation, using standard, art recognized techniques. Once this was done, the CD4^+ and CD8^+ T cells were separated from each other using magnetic cell sorting techniques which are well known to the art, producing CD4^+, CD8^+, and CD4^−/CD8^− cell populations.
A series of 18 mer peptides were prepared from the amino acid sequence of NY-ESO-1 as set forth in, e.g., U.S. Pat. No. 5,804,381, incorporated by reference. The peptides were designed to cover the entire sequence of NY-ESO-1, and to provide overlap.
The peptides were then individually pulsed to antigen presenting cells (“APCs”). These were CD4^−/CD8^− PBMCs taken from the same subjects who had provided the CD4^+ and CD8^+ cells. These APCs were irradiated with 3000 rads, and then pulsed with one of the peptides, at a concentration of 10 μg/ml, for 1 hour, in serum free medium. These APCs were then washed, and added to the CD4^+ cells. In the pulsing experiments, the peptides were solubilized in DMSO (100%) and then diluted with PBS to a final concentration of 10% DMSO. The CD4^+ cells had been cultured in a medium of L-arginine (242 mg/l), L-asparagene (50 mg/l), L-glutamine (300 mg/l), penicillin (10 IU/ml), streptomycin (100 μg/ml), 1% non-essential amino acids, 10% HS, and 10 ng/ml of recombinant human IL-2.
The CD4^+ T cells were restimulated weekly with 1 μg/ml of the peptide being used. On day 12, each CD4^+ culture was assayed for NY-ESO-1 peptide recognition, using the ELISPOT assay of lager, et al., Proc. Natl. Acad. Sci. USA, 97(9):4760-4765 (2000), incorporated by reference. To elaborate on this procedure, flat-bottomed, 96-well nitrocellulose plates were coated with 5 μg/ml of anti-interferon-gamma antibody and incubated overnight at 4° C. After washing with PBS, plates were blocked with 10% human serum (HS) for 1 hour at 37° C. Depending on the effector:target ratio used, various numbers of presensitized CD4^+ T-cells were added to each well along with 5×10^4 autologous peptide pulsed EBV transfected B cells (“EBV-B cells”) serving as target cells and incubated for 16 hours at 37° C. in TCM without IL-2. Plates were then washed extensively (6 times with a solution of 0.05% Tween 20/PBS), and biotinylated anti-interferon-gamma detection antibody was added at a concentration of 0.5 μg/ml. After incubation for 2 h at 37° C., plates were washed and incubated with ABC-AP Vectastain for 1 hour. Plates were washed again and developed with substrate (BCIP/NPT) until blue spots were visible. The number of blue spots/well represented the proportion of NY-ESO-1 specific CD4^+ T-cells/well was finally counted under the microscope.
The EBV-B-cells were generated from each patients' PBMC following standard methods and maintained in RPMI 1640 medium supplemented with 10 mM Hepes buffer, L-arginine (242 mg/l), L-asparagine (50mg/l), L-glutamine (300 mg/l), penicillin (10 IU/ml), streptomycin (100 μg/ml), 1% non-essential amino acids, and 10% FCS. […] PBMC's or EBV-B-cells were molecularly typed for HLA expression using standard procedures.

NW2337 CD4+ T cells = experiment: Cytokine ELISPOT assays (IFNγ, TNFα, IL4, IL10) of NW2337 CD4+ T cells
Description: All ELISPOT assay described, supra were designed to detect IFN-γ secretion by the T cell clones following specific antigen stimulation. To determine the phenotype of the NY-ESO-1 specific CD4^+ T cell clones from patient NW2337, additional ELISPOT assays were designed to detect additional cytokines.
The NW2337 CD4^+ T cells were stimulated with either NY-ESO-1 p49-66 and p55-72 peptides and T cells secretion of IFNγ, TNFα, IL4 and IL10measured by ELISPOT assay. […] IL4 and IL10 was not secreted by any of the NY-ESO-1 specific CD4^+ T-cell clones tested following stimulation with NY-ESO-1 p49-66 and p55-72 peptides.

CD4+ T cells [2] = experiment: IFN-γ ELISPOT of CD4+ T cells presensitized with overlapping NY-ESO-1 18 mer peptides; settings: patient NW2337, limiting dilution

Substance: P55-72: synthetic 18 mer peptide, amino acids 55-72 of NY-ESO-1 (GPGGGAPRGPHGGAASGL; UniProt P78358 55-72, looked up, fragment) [Peptide P55-72]
- Patient T cells 1 (CD4+ T cells [1]; IFN-γ ELISPOT, day 12, CD4+ T cells of patient 1, autologous peptide pulsed EBV-B cells as targets): + (+ indicates >50 spots (all + scores indicated were >100 spots))
- Patient T cells 2 (CD4+ T cells [1]; IFN-γ ELISPOT, day 12, CD4+ T cells of patient 2, autologous peptide pulsed EBV-B cells as targets): + (+ indicates >50 spots (all + scores indicated were >100 spots))
- Patient T cells 3 (CD4+ T cells [1]; IFN-γ ELISPOT, day 12, CD4+ T cells of patient 3, autologous peptide pulsed EBV-B cells as targets): + (+ indicates >50 spots (all + scores indicated were >100 spots))
- patients whose CD4+ T cells recognized the peptide (CD4+ T cells [1]; three patients tested): all three patients
- IFN-γ secretion by stimulated T cell clones (NW2337 CD4+ T cells): produced
- IL4 secretion by stimulated T cell clones (NW2337 CD4+ T cells): not secreted
- IL10 secretion by stimulated T cell clones (NW2337 CD4+ T cells): not secreted
- TNF-α secretion by stimulated T cell clones (NW2337 CD4+ T cells): produced
- CD4+ T-cell clones generated by stimulation with peptide (CD4+ T cells [2]): 53

From patent US7632506B2, “Identification of new NY-ESO-1 epitopes recognized by CD4+ T-cells” (Ludwig Institute for Cancer Research, priority 2005, dated 2009)
